Experiments:
HUVECs [1] = assay: HUVEC tubulogenesis on Matrigel; format: cell-based, human; conditions: for tube formation on Matrigel: HUVEC
Excerpt: Primary endothelial cells (ECs) on basement membrane rapidly attach, align themselves and form capillary-like tubules with lumens and tight cell-cell contacts. […] To better understand the stage in matrigel tube-formation affected by compound 1g cells plated on growth-factor reduced matrigel and treated with either vehicle or compound 1g were followed. Differences become apparent within the first two hours and were clearly visible at the 6-hour time-point. The ECs are much less organized in the presence of compound 1g. […] The effect of compound 1g on tube formation was attenuated in the presence of high concentrations of fetal bovine serum (FBS), likely reflecting non-specific protein binding.
The EYA inhibitors were also tested in tubulogenesis assays. The tubulogenesis assays were performed in 15-well micro-slide (ibidi LLC, Verona Wis.), using growth factor-reduced matrigel (BD Bioscience, Billerica, Mass.). The matrix was prepared by loading 10 μl of matrigel in each micro-slide well and allowing it to solidify for 30 minutes at 37° C. HUVECs were trypsinized and resuspended at 100.000 cell/ml in EBM+2.5% FBS. 50 μl (5,000 cell) were loaded on top of the solidified matrigel and the preparation was incubated for 20 hours at 37° C. in a humidified incubator in a 5% CO2 atmosphere. Bright field images were taken using an inverted microscope at 2.5× magnification, which allowed imaging of the whole well in two pictures that were later merged in Photoshop. Tubular structures were traced and counted using NeuroJ (NIH, USA). In experiments with inhibitor, the inhibitor was added to the cell suspension before loading. Each sample was loaded in triplicate, and each treatment was repeated for reproducibility.

HUVEC cells = assay: Scratch wound healing assay, HUVEC; format: cell-based, human; conditions: counted 22 hours later
Description: Cells were plated and grown to confluency. Scratch wounds were made using a sterile pipette tip, the medium changed to remove any cellular debris, and fresh medium with either vehicle or test compound was introduced. The number of cells that migrated into the cleared space was counted 22 hours later.

EYA3 = EYA3 (Homo sapiens (Human), UniProt Q99504); assay: pNPP assay, full-length human recombinant EYA3; format: biochemical; conditions: pNPP substrate, full-length EYA3
Excerpt: The catalytic domain of mouse Eya3 (“ED”, comprising residues 223-510 of Eya3) was purified as described by Rayapureddi, J. P. et al. (FEBS Lett 580, 3853-3859 (2006), incorporated by reference in its entirety). For full-length Eya3 (“hEYA3”), human Eya3 isoform 2 (representing the major species identified in human cell lines by mass spectrometry, expressed as residues 127-573 of NM_001990, isoform 1) was sub-cloned into pDEST565 to express a poly-histidine-Glutathione-S-transferase (His-GST) tagged fusion protein with a TVMV protease site. The protein was purified by glutathione-S-transferase affinity chromatography followed by TVMV cleavage, Ni-NTA chromatography, and finally size exclusion chromatography. […]
The compounds were then tested using full-length human recombinant, purified EYA3 and pNPP as a substrate. Compounds were dissolved in DMSO and diluted as needed. […] Reactions were incubated at 30° C. for 30 minutes and quenched with 100 mM EDTA pH 10. IC50 values were then calculated directly from regression curves using PRISM software. All reported values are the mean of two independent experiments.

HUVECs [2] = assay: HUVEC cell viability assay (WST-8); format: cell-based, human; conditions: 3 days of exposure
Description: Additionally, a cell viability assay was conducted over 3 days of exposure to test compounds 1, 1a and 1g in order to assess both the possibility of immediate cellular toxicity as well as any effect on cell proliferation. HUVECs were seeded and equilibrated for 24 hours before addition of the test compounds. Cellular metabolic activity was measured at defined time-points using the tetrazolium dye WST-8 to quantify NAD(P)H-dependent cellular oxidoreductase enzyme activity.

mouse aortic rings = assay: Aortic ring sprouting assay; format: cell-based
Description: Additionally, the effect of compounds 1d, 1f, 1h, 1i, 1g, 2 and 2a on cell proliferation, migration, tube formation, micro-vessel branching, and perivascular recruitment using an aortic ring sprouting assay. When slices of mouse aorta are cultured in collagen gels there is typically a lag phase for the first 4 days followed by linear sprouting of endothelial cells. By day 6, branching is observed. All the test compounds were initially assayed at 7.5 μM and the number of branch-points counted. When there was a severe effect (no visible sprouting), or when there was no apparent effect, other doses were tested to establish a dose-dependence. All of the compounds assayed were able to attenuate aortic ring sprouting. There was a strong reduction in initial sprouting and some attenuation of branching. With the exception of 2a, in all cases where there was sprouting, the length of sprouts was shorter than in the controls.
Endothelial cell migration can also be studied […] using the aortic ring assay in which sprouting angiogenesis is monitored by the formation of vascular sprouts outside the wall of mouse aortic rings incubated in collagen matrix and stimulated by VEGF (Gerhardt, H., et al. EXS, 3-15 (2005), hereby incorporated by reference in its entirety). Briefly, mice were obtained from the Cincinnati Children's veterinary service and handled according to the institutional animal care and use protocol. […] Mice were 4 to 6 weeks old female C57BL16, and aortic ring explants were cultured at 37° C. in a humidified incubator under a 5% CO2 atmosphere.
Each inhibitor was serially diluted (between 0.25 mM and 7.5 mM) to stocks of 1000× the working concentrations in sterile 100% DMSO in order to achieve an equal final concentration of DMSO (0.1% v/v) in all culture conditions. For the experiments, the compounds were diluted in EBM containing 2.5% FBS, penicillin/streptomycin and 20 ng/ml VEGF165 (R&D Systems, Minneapolis, Minn.). Each compound was applied from the first day of culture over a 10-day period with medium change every two days. In all experiments, the vehicle (DMSO, 0.1%) was used as control. The sprouting density was derived from counting the number of branches per ring, and the extent of angiogenic sprouting was estimated by measuring the total surface area covered by the vessels as illustrated in FIG. 7.

HUVECs [3] = assay: HUVEC proliferation (MTT); format: cell-based, human; conditions: 5 μM, 24 hours
HUVECs [4] = assay: HUVEC transwell migration; format: cell-based, human; conditions: 5 μM
Excerpt: (§1) In order to determine whether EYA3 knock down would affect cell migration, a modified Boyden chamber assay was used to measure HUVEC migration. Briefly, human umbilical vein endothelial cells (HUVECs) were purchased from Lonza (Walkersville, Md.) and maintained in the endothelial cell growth medium (PromoCell, Hleidelberg, Germany), under a 5% CO2 atmosphere. MCF10A cells from ATCC were stably transfected with either pcDNA 3.2N5-DEST (vector control), V5-EYA2 or V5-EYA2(D250N). Transwell migration experiments were performed as previously described (Pandey, R. N. et al. Oncogene 29, 3715-3722, (2010)).

PTP1B = PTP1B (Homo sapiens (Human), UniProt P18031); assay: PTP1B-catalyzed pNPP hydrolysis; format: biochemical; conditions: pNPP substrate
Description: The catalytic domain of human Eya2 (“hEYA2(ED)”) was similarly sub-cloned as a polyhistidine fusion construct in the vector pDEST-527. Fusion protein was purified by NiNTA chromatography and followed by size-exclusion chromatography over a Superdex-75 column. The relative purity of protein samples was determined using SDS-PAGE. PTP1B was purified as described previously (Rayapureddi, J. P. et al. Nature 426, 295-298 (2003), incorporated by reference in its entirety).
An inhibitory assay was conducted using the previously described p-nitrophenylphosphate assay (Rayapureddi, J. P. et al. Nature 426, 295-298 (2003)). Briefly, ED was incubated in a reaction mixture containing 20 mM MES pH 6, 2 mM MgCl2, 125 μM inhibitor, 3.4 mM para-nitrophenol phosphate (pNPP) and 0.01 μg/μL enzyme.
PTP1B is a classical Cys-based tyrosine phosphatase.

retinal vasculature = assay: Mouse model of oxygen-induced retinopathy; format: in vivo, mice; conditions: 100 or 50 pmoles injected at P12, analyzed at P16
Excerpt: The mouse model of oxygen-induced retinopathy mimics the retinopathy characteristic of proliferative retiopathy conditions such as retinopathy of prematurity and diabetic retinopathy. […] The resulting retinal hypoxia after day 12, when pups were brought back to 20% O2, induced excessive hypoxia-driven angiogenesis. A characteristic large avascular area at the center of the retina and excessive regrowth of superficial vessels (pre-retinal neovascular tufts) in the mid-peripheral region was observed. […] In contrast, inhibition of either Vegf or Vegfr2 in OIR experiments suppresses both neovascular tuft formation and revascularization.

[5] = tested on: developing zebrafish vasculature; assay: Zebrafish model of angiogenesis; format: in vivo; conditions: exposure from 5.25 hpf, analysis at 24 hpf; compound 1 at 0.25 μM
Description: Embryos (FLK1-GFP trangenic) were maintained in fish water until the 50% epiboly stage (5.25 hpf) and were transferred into wells of 24-well plate containing the inhibitors in fish water. The analysis for vascular defects was performed after the 24 hpf stage, and embryos were imaged using a fluorescence microscope.
Transgenic fish expressing EGFP in endothelial cells (Tg(flk1:EGFP)) were used to facilitate visualization of the developing vasculature. In control experiments embryos were treated with 0.1% DMSO (vehicle). At the time of analyses (24 hpf) developing vessels normally migrated from the lateral plate mesoderm to the midline and formed the vascular cord, subsequently forming the dorsal aorta and the posterior cardinal vein and followed by the formation of intersegmental vessels at designated branch points (FIG. 6b).

MCF10A(EYA2) cells = assay: Transwell migration of MCF10A-EYA2 cells; format: cell-based; conditions: 7.5 μM
Excerpt: The tyrosine phosphatase activity of Eya3 and Eya2 promotes single cell motility in breast cancer cells (Pandey, R. N. et al. Oncogene (2010) 29:3715-3722, incorporated by reference in its entirety). EYA2 is over-expressed in breast cancers and is associated with increased metastasis and a poorer outcome (Farabaugh, et al. Oncogene (2011) 259). […] Overexpression of EYA2, but not the tyrosine-phosphatase dead mutant, promoted cell motility (FIG. 2a). […] This effect was dose-dependent (FIG. 2d) and compound (1a) was able to reduce cell motility by over 50% at the lowest concentration (1 μM) tested.
as §1

Sequence of EYA3 (Q99504 127-573): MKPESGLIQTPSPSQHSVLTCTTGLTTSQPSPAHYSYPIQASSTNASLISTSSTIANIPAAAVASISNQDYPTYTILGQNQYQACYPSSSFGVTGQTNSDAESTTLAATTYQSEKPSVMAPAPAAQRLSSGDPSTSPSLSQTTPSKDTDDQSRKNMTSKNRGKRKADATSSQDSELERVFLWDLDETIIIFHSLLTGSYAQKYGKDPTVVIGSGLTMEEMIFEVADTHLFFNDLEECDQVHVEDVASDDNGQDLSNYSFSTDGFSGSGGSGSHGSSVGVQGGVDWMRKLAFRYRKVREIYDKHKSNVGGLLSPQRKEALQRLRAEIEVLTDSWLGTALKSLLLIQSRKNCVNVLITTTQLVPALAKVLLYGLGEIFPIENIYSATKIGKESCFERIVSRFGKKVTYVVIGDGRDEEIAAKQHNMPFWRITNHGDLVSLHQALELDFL
Sequence of PTP1B (P18031 whole entry, species assumed, the tested form may be a part): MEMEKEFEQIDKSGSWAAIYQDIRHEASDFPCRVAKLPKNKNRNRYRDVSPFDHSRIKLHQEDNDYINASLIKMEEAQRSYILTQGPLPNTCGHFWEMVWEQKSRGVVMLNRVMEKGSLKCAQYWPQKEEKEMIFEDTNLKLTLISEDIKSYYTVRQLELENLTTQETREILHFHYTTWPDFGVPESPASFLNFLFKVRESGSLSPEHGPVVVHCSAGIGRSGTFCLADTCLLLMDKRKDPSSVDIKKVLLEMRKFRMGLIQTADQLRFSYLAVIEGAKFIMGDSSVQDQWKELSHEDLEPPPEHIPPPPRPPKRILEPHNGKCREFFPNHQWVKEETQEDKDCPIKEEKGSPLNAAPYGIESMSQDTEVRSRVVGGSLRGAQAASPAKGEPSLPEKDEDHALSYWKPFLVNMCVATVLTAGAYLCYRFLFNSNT

SMILES | IC50 (EYA3) [µM] | tube formation on Matrigel (HUVECs [1]) | further results
CCc1oc2cc(O)ccc2c1C(=O)c1cc(Br)c(O)c(Br)c1 [Compound 1g] | 27.2 | much stronger inhibitory effect than compound 1a | reduction of cell migration (HUVEC cells): ~80%; reduction in cell proliferation (HUVECs [2]): over 50%; aortic ring sprouting (mouse aortic rings; initially assayed at 7.5 μM): most potent inhibitor
CC(O)CCc1oc2ccccc2c1C(=O)c1cc(I)c(O)c(I)c1 (centres unmarked) [Compound 2a] | – | did not show significant attenuation of tube formation | –
CCCCc1oc2ccccc2c1C(=O)c1ccc(O)cc1 [Compound 1b] | – | – | tubulogenesis inhibition (HUVECs [1]; 7.5 μM): effective at the highest concentrations tested; HUVEC cell proliferation (HUVECs [3]): no effect on cell proliferation; HUVEC cell motility (HUVECs [4]): attenuated HUVEC cell motility; IC50 (PTP1B): 71.4 µM; formation of neovascular tufts (retinal vasculature): Significant reduction in the formation of neovascular tufts; intersegmental vessels in zebrafish embryos [5]: reduced the number of intersegmental vessels, but were less potent; sprout length and microvascular density of aortic rings (mouse aortic rings; 5 μM, 10 days): shorter sprouts and significantly lower microvascular density; cell migration (MCF10A(EYA2) cells): significantly inhibited cell migration
CC(O)c1oc2ccccc2c1C(=O)c1cc(Br)c(O)c(Br)c1 (centres unmarked) [Compound 1i] | 41.9 | – | –
Cc1oc2ccccc2c1C(=O)c1cc(I)c(O)c(I)c1 [Compound 1d] | 8.3 | did not show significant attenuation of tube formation | –
CCCCc1oc2ccccc2c1C(=O)c1cc(I)c(O)c(I)c1 [Compound 2] | – | did not show significant attenuation of tube formation | –
Cc1oc2ccccc2c1C(=O)c1ccc(O)cc1 [Compound 1k] | 81.1 | – | –

More lines, main results first:

IC50 (EYA3) [µM] | SMILES | tube formation on Matrigel (HUVECs [1]) | further results
3.4 | CCc1oc2ccccc2c1C(=O)c1cc(I)c(O)c(I)c1 [Compound 1c] | – | –
13.8 | CC(O)Cc1oc2ccccc2c1C(=O)c1cc(I)c(O)c(I)c1 (centres unmarked) [Compound 1e] | – | –
17.5 | Cc1oc2ccccc2c1C(=O)c1ccc(O)c(I)c1 [Compound 1f] | did not show significant attenuation of tube formation | –
40.8 | CCc1oc2ccc(O)cc2c1C(=O)c1cc(Br)c(O)c(Br)c1 [Compound 1h] | did not show significant attenuation of tube formation | –
73.1 | CCc1oc2ccc(O)cc2c1C(=O)c1ccc(O)cc1 [Compound 1j] | – | –

From patent US9725430B2, “Use of small molecule inhibitors targeting EYA tyrosine phosphatase” (Children's Hospital Medical Center, priority 2013, dated 2017)
